Source: patent publication US6331555A, “Treatment of platelet derived growth factor related disorders such as cancers” (priority 1999, dated 2001)
Entries after “also recorded” stand apart in the source; their conditions may differ.

Legend:
A431 epidermoid tumor = assay: SC xenograft in mice; format: in vivo, human
Protocol: (§1) Cell lines were grown in appropriate medium (see Appendix 1). Cells were harvested at or near confluency with 0.05% Trypsin-EDTA and pelleted at 450×g for 10 min. Pellets were resuspended in sterile PBS or media (without FBS) to a particular concentration and the cells were implanted into the hindflank of mice. Tumor growth was measured over 3 to 6 weeks using venier calipers. Tumor volumes were calculated as a product of length×width×height unless otherwise indicated. P values were calculated using the Students' t-test.
(§2) C6 and SKOV-3(T) cells were grown in culture, as described in "cell growth" above, and implanted into the hind flank of a female Balb/c nu/nu mouse at 3×10^6 cells (for C6 experiments), or 1×10^7 cells (for SKOV-3 experiments) in […] of PBS on Day 0. U87MG, U118MG or U373MG human glioblastoma cells (obtained from the ATCC), or A4312 were also implanted into athymic mice. […] Tumors were measured using venier calipers and tumor volume was calculated as a product of tumor length, width, and height.

SKOV3T ovarian tumor = assay: SC xenograft in mice; format: in vivo, human
Protocol: as §1, §2

U118 glioblastoma = assay: SC xenograft in mice; format: in vivo, human; details: 15 mg/kg
Protocol: as §1, §2

U373MG glioblastoma = assay: SC xenograft in mice; format: in vivo, human
Protocol: as §1, §2

U87MG glioblastoma = assay: SC xenograft in mice; format: in vivo, human
Protocol: as §1, §2

[1] = test system: 7TD1 (B-cell hybridoma) cells; assay: Survival, IP 7TD1 B-cell hybridoma in C57BL/6 mice; format: in vivo, mouse
Protocol: Cell lines were grown in the appropriate media as described in Appendix 1. Cells were harvested and washed in sterile PBS or medium without FBS, resuspended to a suitable concentration, and injected into the IP cavity of […] of the appropriate strain. Prior to implantation of 7TD1 cells, C57BL/6 mice were primed by IP injection of 0.5 mL Pristane. SKOV3T cells were implanted into athymic mice without Pristane priming. Mice were observed daily for the occurrence of ascites formation. Individual animals were sacrificed when they presented with a weight gain of 40%, or when the IP tumor burden began to cause undue stress and pain to the animal.
All animals in the control group died by day 9, while 3 of 8 animals in the A10-treated group survived past day 80.

spleen cells = assay: Normal immune function in mice responding to a primary immunization; format: in vivo, mouse; details: 20 mg/kg/day
Source text: At the indicated times, animals were sacrificed, and the spleens were aseptically removed and placed into sterile medium. Spleens were processed into single cell suspensions by grinding between sterile frosted glass microscope slides. After a single wash to remove tissue debris, the spleen cells were resuspended in a hypotonic ammonium chloride buffer to lyse erythrocytes. Lymphocytes were washed and resuspended to the appropriate concentrations in complete medium, consisting of RPMI plus 10% heat-inactivated FBS, 2 mM glutamine, 50 μM β-mercaptoethanol, and penicillin-streptomycin. The responses of the lymphocytes were examined in the following assays according to accepted procedures (Current Protocols in Immunology. Coligan, J. E., Kruisbeek, A. M., Margulies, D. H., Shevach, E. M., Strober, W. (eds.) John Wiley and Sons, Inc., 1992).
The T-cell mitogen, ConA, and the T-cell independent B-cell mitogen, LPS, were added to 96-well round-bottom wells at the indicated concentrations. Lymphocytes from normal, vehicle-dosed, and drug-dosed animals were added at a final concentration of 2.5×10^5 /well. Cultures were usually set up in triplicate or quadruplicate. The plates were incubated at 37° C. in a humidified atmosphere containing 5% CO2 for the indicated times. Supernatants (approximately 100 μL) were carefully removed from the wells and stored at -80° C. for lymphokine and immunoglobulin analyses. To measure proliferation of the lymphocytes, 1 μCi of ^3 H-thymidine was added to each well, and the plates were incubated for 6 hr. The cultures were harvested onto glass fiber filters, and the incorporated radioactivity was quantitated by liquid scintillation counting (Betaplate, Wallac).
Lymphocytes from normal, vehicle-dosed, and drug-dosed animals were plated at 2.5×10^5 /well in round-bottom 96-well plates. Stimulator cells were then added at the same cell concentration. […] The plates were incubated for 3 to 4 days, at which time supernatants were harvested and the cultures were pulsed as described for the mitogen assays.
Supernatants from mitogen and MLR cultures were assayed for IL-2 and IL-6 content by the ability to support the growth of factor-dependent cell lines. HT-2 cells (10^4 /well, IL-2-dependent) and 7TD1 cells (2×10^3 /well, IL-6-dependent) were plated in 96-well flat-bottom plates, in 50 μL/well. Supernatants were added in 50 μL/well, and the plates were incubated overnight (HT-2) or four days (7TD1). Cellular proliferation was determined in the MTT colorimetric assay (Appendix 3.1).
Flat bottom 96-well EIA plates were coated with goat anti-mouse Ig antibodies (Southern Biotechnology) overnight at 4° C. The plates were blocked by the addition of PBS+1% BSA. After washing with PBS, supernatants from murine mitogen and MLR cultures were added and incubated at room temperature for 1 hr. The plates were washed with PBS, then HRP-labeled goat anti-mouse Ig antibodies were added and incubated at room temperature for 1 hr. The plates were washed and developed by the addition of substrate (ABTS).
BALB/c mice were immunized SC with 50 μg keyhole limpet hemocyanin (KLH) suspended in complete Freund's adjuvant (CFA); control mice were mock-immunized with an emulsion of phosphate-buffered saline (PBS) in CFA. […] On day 14, all mice were sacrificed, and their spleen cells were assayed. In addition , immune e responses to KLH and tetanus toxoid were measured as described in Appendix 5.

[2] = LD50 of A10 in BALB/c mice; details: mouse, in vivo, ip
Protocol: All animals wee observed for 7 to 14 days after the last dose was administered. The LD50 was calculated from a plot of % mortality versus dose (log M) using a four parameter logistic equation.

tumor xenografts = assay: Xenografts of various tumor types in mice; format: in vivo
Protocol: as §1

[3] = mice xenotransplanted with human ovarian cancer cells

Q: What does the source list for `Cc1oncc1C(=O)Nc1ccc(C(F)(F)F)cc1` [Compound A10, 5-methylisoxazole-4 carboxylic acid-(4-trifluromethyl)-anilide]?
A: effect on A431 tumor growth (A431 epidermoid tumor; 15 mg/kg/day, DMSO): no more than 25%; growth of xenograft (A431 epidermoid tumor; 12 to 20 mg/kg/day): did not significantly inhibit the growth of xenotransplanted cells expressing EGF receptor; also recorded: failed to significantly inhibit the growth; % Inhibition (A431 epidermoid tumor; nu/nu, 15 mg/kg/day, day 15): 40%; inhibition in tumor growth (SKOV3T ovarian tumor; 15 mg/kg/day (DMSO), after 20 days): greater than 90%; cytotoxicity or mortality (SKOV3T ovarian tumor; [3]): without significant cytotoxicity or mortality; ovarian tumor growth (SKOV3T ovarian tumor; [3]): nearly complete inhibition of ovarian tumor growth; % Inhibition (SKOV3T ovarian tumor; nu/nu, 15 mg/kg/day, day 21): 94%; In Vivo inhibition (SKOV3T ovarian tumor; xenografted athymic mice): 95%; % Inhibition (U118 glioblastoma): 57%; % Inhibition (U373MG glioblastoma; 15 mg/kg): 54%; % Inhibition (U373MG glioblastoma; nu/nu, 15 mg/kg/day, day 37): 54%; % Inhibition (U87MG glioblastoma; 5 mg/kg): 52%; % Inhibition (U87MG glioblastoma; 10 mg/kg): 58%; % Inhibition (U87MG glioblastoma; 15 mg/kg): 66%; % Inhibition (U87MG glioblastoma; 20 mg/kg): 92%; survival ([1]; 15 mg/kg/day IP in DMSO): significantly increase the survival; animals surviving ([1]; 15 mg/kg/day IP in DMSO 30 days, past day 80): 3 of 8; IL-2 production (spleen cells; Allo): 0; IL-6 production (spleen cells; Allo): 0; Ig production (spleen cells; Allo): 0; IL-2 production (spleen cells; ConA): 0; IL-6 production (spleen cells; ConA): 0; Ig production (spleen cells; ConA): 0; IL-2 production (spleen cells; KLH): 0; IL-6 production (spleen cells; KLH): 0; Ig production (spleen cells; KLH): 0; IL-2 production (spleen cells; LPS): 0; IL-6 production (spleen cells; LPS): 0; Ig production (spleen cells; LPS): 0; LD50 [2]: 94 mg/kg; growth of xenografts (tumor xenografts; 12 to 20 mg/kg/day, glioma, SKOV3T, PA-1, A375, PC-3, Calu-6, D1B, L1210): effectively inhibited the growth; inhibition of glioma growth (tumor xenografts; xenografted gliomas in mice, some animals, relative to untreated controls): greater than 95%
